Laboratory results: patent publication US9604933B2, “Pyrazolochalcones as potential anticancer agents” (COUNCIL OF SCIENTIFIC AND INDUSTRIAL RESEARCH, priority 2013, dated 2017)

Legend:
CCRF-CEM = test: NCI SRB cytotoxicity, leukemia CCRF-CEM; format: cell-based; settings: Homo sapiens, 48 h exposure
Experimental: (§1) The pyrazolochalcones (7e, 8e, 10e, 11e, 12e, 13e and 8f) have been tested against fifty nine human tumor cell lines derived from nine cancer types (leukemia, non-small cell lung cancer, colon cancer, CNS cancer, melanoma, ovarian cancer, renal cancer, prostate cancer and breast cancer) as per the NCI protocol. For each compound, dose response curves for individual cell lines have been measured at a minimum of five concentrations at 10 fold dilutions. A protocol of 48 h continuous drug exposure has been used, and a sulforhodamine B (SRB) protein assay has been used to estimate cell viability or growth. The concentration for 50% cell growth inhibition (GI50), 50% cell death (LC50, 50% growth) and total cell growth inhibition (TGI, 0% growth) values were tabulated (Table-1). DMSO was used as control to calculate the values of GI50, LC50 and TGI. The compounds 7e, 8e, 10e, 11e, 12e, 13e and 8f has been evaluated for their in vitro cytotoxicity in […] cell lines from nine human cancer types of leukemia (K-562, SR), non-small cell lung (Hop-62, NCI-H226, NCI-H522), colon (HCT-116, HCT-15, HCC-2998), CNS (SF-539), melanoma (SK-MEL-5, UACC-62, M14), ovarian (IGROV1), renal (A498), prostate (PC3) and breast (BT-549, MDA-MB-435, HS578T) origin. The results are expressed as percent of cell growth determined relative to that of untreated control cells (Table 2).

HL-60(TB) = test: NCI SRB cytotoxicity, leukemia HL-60(TB); format: cell-based; settings: Homo sapiens, 48 h exposure
Experimental: as §1

K-562 = test: NCI SRB cytotoxicity, leukemia K-562; format: cell-based; settings: Homo sapiens, K562, 48 h exposure
Experimental: as §1

SR = test: NCI SRB cytotoxicity, leukemia SR; format: cell-based; settings: Homo sapiens, 48 h exposure
Experimental: as §1

NCI-H226 = test: NCI SRB cytotoxicity, non-small cell lung NCI-H226; format: cell-based; settings: Homo sapiens, 48 h exposure
Experimental: as §1

NCI-H23 = test: NCI SRB cytotoxicity, non-small cell lung NCI-H23; format: cell-based; settings: Homo sapiens, 48 h exposure
Experimental: as §1

NCI-H460 = test: NCI SRB cytotoxicity, non-small cell lung NCI-H460; format: cell-based; settings: Homo sapiens, 48 h exposure
Experimental: as §1

KM12 = test: NCI SRB cytotoxicity, colon KM12; format: cell-based; settings: Homo sapiens, 48 h exposure
Experimental: as §1

SNB-19 = test: NCI SRB cytotoxicity, CNS SNB-19; format: cell-based; settings: Homo sapiens, 48 h exposure
Experimental: as §1

SNB-75 = test: NCI SRB cytotoxicity, CNS SNB-75; format: cell-based; settings: Homo sapiens, 48 h exposure
Experimental: as §1

LOX IMVI = test: NCI SRB cytotoxicity, melanoma LOX IMVI; format: cell-based; settings: Homo sapiens, 48 h exposure
Experimental: as §1

MALME-3M = test: NCI SRB cytotoxicity, melanoma MALME-3M; format: cell-based; settings: Homo sapiens, 48 h exposure
Experimental: as §1

M14 = test: NCI SRB cytotoxicity, melanoma M14; format: cell-based; settings: Homo sapiens, 48 h exposure
Experimental: as §1

SK-MEL-28 = test: NCI SRB cytotoxicity, melanoma SK-MEL-28; format: cell-based; settings: Homo sapiens, 48 h exposure
Experimental: as §1

SK-MEL-5 = test: NCI SRB cytotoxicity, melanoma SK-MEL-5; format: cell-based; settings: Homo sapiens, 48 h exposure
Experimental: as §1

UACC-257 = test: NCI SRB cytotoxicity, melanoma UACC-257; format: cell-based; settings: Homo sapiens, 48 h exposure
Experimental: as §1

IGROV1 = test: NCI SRB cytotoxicity, ovarian IGROV1; format: cell-based; settings: Homo sapiens, IGROV-1, 48 h exposure
Experimental: as §1

OVCAR-4 = test: NCI SRB cytotoxicity, ovarian OVCAR-4; format: cell-based; settings: Homo sapiens, 48 h exposure
Experimental: as §1

OVCAR-5 = test: NCI SRB cytotoxicity, ovarian OVCAR-5; format: cell-based; settings: Homo sapiens, 48 h exposure
Experimental: as §1

SK-OV-3 = test: NCI SRB cytotoxicity, ovarian SK-OV-3; format: cell-based; settings: Homo sapiens, 48 h exposure
Experimental: as §1

786-0 = test: NCI SRB cytotoxicity, renal 786-0; format: cell-based; settings: Homo sapiens, 48 h exposure
Experimental: as §1

A498 = test: NCI SRB cytotoxicity, renal A498; format: cell-based; settings: Homo sapiens, 48 h exposure
Experimental: as §1

RXF 393 = test: NCI SRB cytotoxicity, renal RXF 393; format: cell-based; settings: Homo sapiens, 48 h exposure
Experimental: as §1

SN12C = test: NCI SRB cytotoxicity, renal SN12C; format: cell-based; settings: Homo sapiens, 48 h exposure
Experimental: as §1

UO-31 = test: NCI SRB cytotoxicity, renal UO-31; format: cell-based; settings: Homo sapiens, 48 h exposure
Experimental: as §1

DU-145 = test: NCI SRB cytotoxicity, prostate DU-145; format: cell-based; settings: Homo sapiens, 48 h exposure
Experimental: as §1

MCF7 = test: NCI SRB cytotoxicity, breast MCF7; format: cell-based; settings: Homo sapiens, 48 h exposure
Experimental: as §1

BT-549 = test: NCI SRB cytotoxicity, breast BT-549; format: cell-based; settings: Homo sapiens, 48 h exposure
Experimental: as §1

T-47D = test: NCI SRB cytotoxicity, breast T-47D; format: cell-based; settings: Homo sapiens, T47D, 48 h exposure
Experimental: as §1

Non-small cell lung = test: NCI SRB cytotoxicity, non-small cell lung panel average; format: cell-based, human; settings: average of cell lines; for GI50 / LC50: Homo sapiens; for GI50: read-out: Log10 GI50 (concentration in mol/L causing 50% growth inhibition) (converted); for LC50: read-out: Log10 LC50 (concentration in mol/L causing 50% cell death) (converted)
Experimental: as §1
(§2) Each cancer type represents the average of six to eight different cancer cell lines.

Melanoma = test: NCI SRB cytotoxicity, melanoma panel average; format: cell-based, human; settings: average of cell lines; for GI50 / LC50: Homo sapiens; for GI50: read-out: Log10 GI50 (concentration in mol/L causing 50% growth inhibition) (converted); for LC50: read-out: Log10 LC50 (concentration in mol/L causing 50% cell death) (converted)
Experimental: as §1, §2

Renal = test: NCI SRB cytotoxicity, renal panel average; format: cell-based, human; settings: average of cell lines; for GI50 / CC50: Homo sapiens; for GI50: read-out: Log10 GI50 (concentration in mol/L causing 50% growth inhibition) (converted); for CC50: read-out: Log10 LC50 (concentration in mol/L causing 50% cell death) (converted)
Experimental: as §1, §2

HOP92 = test: NCI SRB cytotoxicity, non-small cell lung HOP92; format: cell-based; settings: Homo sapiens, HOP-92, 48 h exposure
Experimental: as §1

SMILES | GI50 (CCRF-CEM) [nM] | GI50 (HL-60(TB)) [nM] | GI50 (K-562) [nM] | GI50 (SR) [nM] | GI50 (NCI-H226) [nM] | GI50 (NCI-H23) [nM] | GI50 (NCI-H460) [nM] | GI50 (KM12) [nM] | GI50 (SNB-19) [nM] | GI50 (SNB-75) [nM] | GI50 (LOX IMVI) [nM] | GI50 (MALME-3M) [nM] | GI50 (M14) [nM] | GI50 (SK-MEL-28) [nM] | GI50 (SK-MEL-5) [nM] | GI50 (UACC-257) [nM] | GI50 (IGROV1) [nM] | GI50 (OVCAR-4) [nM] | GI50 (OVCAR-5) [nM] | GI50 (SK-OV-3) [nM] | other results
COc1ccc(C(=O)/C=C/c2cc(-c3cc(OC)c(OC)c(OC)c3)n[nH]2)cc1OC [8e, (E)-1-(3,4-dimethoxyphenyl)-3-(3-(3,4,5-trimethoxyphenyl)-1H-pyrazol-5-yl)prop-2-en-1-one] | 620 | 1440 | 1910 | 270 | 1690 | 2150 | 1410 | 1070 | 1420 | 1230 | 1380 | 1990 | 1840 | 1780 | 1650 | 1490 | 1800 | 2690 | 1590 | 2790 | GI50 (786-0): 1400 nM; GI50 (A498): 1480 nM; GI50 (RXF 393): 1350 nM; GI50 (SN12C): 1540 nM; GI50 (UO-31): 1280 nM; GI50 (DU-145): 550 nM; GI50 (MCF7): 820 nM; GI50 (BT-549): 1440 nM; GI50 (T-47D): 1630 nM; GI50 (Non-small cell lung): 1230 nM; LC50 (Non-small cell lung): 6460 nM; Log10 TGI (concentration in mol/L causing total growth inhibition (0% growth)) (Non-small cell lung): −5.58 mol/L; GI50 (Melanoma): 1700 nM; LC50 (Melanoma): 6170 nM; Log10 TGI (concentration in mol/L causing total growth inhibition) (Melanoma): −5.49 mol/L; GI50 (Renal): 1510 nM; CC50 (Renal): 6610 nM; Log10 TGI (concentration in mol/L causing total growth inhibition (0% growth)) (Renal): −5.51 mol/L
COc1cc(-c2cc(/C=C/C(=O)c3ccc4c(c3)OCO4)[nH]n2)cc(OC)c1OC [11e, (E)-1-(benzo[d][1,3]dioxol-5-yl)-3-(3-(3,4,5-trimethoxyphenyl)-1H-pyrazol-5-yl)prop-2-en-1-one] | 1570 | 2170 | 3200 | 550 | 3310 | 2020 | 2120 | 1760 | 4300 | 2010 | 1820 | 4420 | 3860 | 2480 | 4510 | 2460 | 5000 | 3800 | 3370 | 5760 | GI50 (786-0): 2330 nM; GI50 (A498): 2760 nM; GI50 (RXF 393): 1480 nM; GI50 (SN12C): 3940 nM; GI50 (UO-31): 1910 nM; GI50 (DU-145): 2720 nM; GI50 (MCF7): 1670 nM; GI50 (BT-549): 2370 nM; GI50 (T-47D): 2510 nM; LC50 (Non-small cell lung): 53700 nM; Log10 GI50 (concentration in mol/L causing 50% growth inhibition) (Non-small cell lung): −4.27 mol/L; Log10 TGI (concentration in mol/L causing total growth inhibition (0% growth)) (Non-small cell lung): −4.70 mol/L; LC50 (Melanoma): 72400 nM; Log10 GI50 (concentration in mol/L causing 50% growth inhibition) (Melanoma): −4.14 mol/L; Log10 TGI (concentration in mol/L causing total growth inhibition) (Melanoma): −4.52 mol/L; CC50 (Renal): 42700 nM; Log10 GI50 (concentration in mol/L causing 50% growth inhibition) (Renal): −4.37 mol/L; Log10 TGI (concentration in mol/L causing total growth inhibition (0% growth)) (Renal): −4.94 mol/L
COc1ccc(C(=O)/C=C/c2cc(-c3cc(OC)c(OC)c(OC)c3)n[nH]2)cc1 [7e, (E)-1-(4-methoxyphenyl)-3-(3-(3,4,5-trimethoxyphenyl)-1H-pyrazol-5-yl)prop-2-en-1-one] | 1420 | 2160 | 2320 | 340 | 1890 | 3040 | 1720 | 1560 | 1510 | 1490 | 1580 | 1860 | 2200 | 2120 | 1720 | 1750 | 2210 | 2200 | 1880 | 3990 | GI50 (HOP92): 1060 nM; GI50 (786-0): 1950 nM; GI50 (A498): 1740 nM; GI50 (RXF 393): 1270 nM; GI50 (SN12C): 1810 nM; GI50 (UO-31): 1450 nM; GI50 (DU-145): 1430 nM; GI50 (MCF7): 1150 nM; GI50 (BT-549): 1860 nM; GI50 (T-47D): 2310 nM; GI50 (Non-small cell lung): 1820 nM; LC50 (Non-small cell lung): 21900 nM; Log10 TGI (concentration in mol/L causing total growth inhibition (0% growth)) (Non-small cell lung): −5.36 mol/L; GI50 (Melanoma): 2090 nM; LC50 (Melanoma): 36300 nM; Log10 TGI (concentration in mol/L causing total growth inhibition) (Melanoma): −5.32 mol/L; GI50 (Renal): 1820 nM; CC50 (Renal): 18200 nM; Log10 TGI (concentration in mol/L causing total growth inhibition (0% growth)) (Renal): −5.43 mol/L
